# Assay results reported in patent publication US5929074A, “Pyridazinone derivatives with pharmaceutical activity” (Nissan Chemical Industries, Ltd., priority 1993, dated 1999).
# Like-named read-outs stand apart in the source and are kept apart here.
# Tests used:
# [1] = tested on: guinea-pig trachea; test: Bronchodilating effect in vitro, Method 1-1: relaxation of LTD4-contracted guinea-pig trachea strips; format: cell-based; settings: Method 1-1, LTD4 (30 nM) contracted trachea, indomethacin 5 μM, read-out: EC50 (concentration to achieve 50% relaxation relative to relaxation by 1 mM aminophylline)
# Description: (§1) A test sample drug was dissolved in 100% dimethylsulfoxide (DMSO, Wako Junyaku) and diluted for use. Leukotriene D4 (LTD4, Ultrafine) and isoproterenol (Isoproterenol, Sigma) were diluted with distilled water. Indomethacin (Indo, Sigma) was dissolved in 100% ethanol (EtOH, Komune Kagaku). Aminophylline (AP, Sigma), histamine dihydrochloride (His, Wako Junyaku) was dissolved in distilled water. The final concentrations of DMSO and EtOH in a bath were made not higher than 0.25% v/v and not higher than 0.1% v/v, respectively. Method 1:1:
# (§2) A guinea-pig of 300-450 g was exsanguinated, and the trachea was taken out. After removing fat and connective tissues, it was cut and divided into 2 to 3 spiral strips, each having a width of about 2 mm and containing 4 smooth muscle tissues. Each specimen thus prepared was suspended in an organ bath of 8 ml containing a modified Tyrode solution aerated with 95% O2 +5% CO2 at 37° C., and a load of 1 g was applied thereto. The relaxation of the muscle was recorded by a pen recorder (Yokogawa Hokushin Electric, type 3066) by means of an isotonic transducer (Nihon Kohden, TD-112S).
# The composition of the modified Tyrode solution was as follows (mM):
# The specimen was allowed to stand for 50-60 minutes, and was contracted with histamine dihydrochloride (100 μM). After the reaction became constant, it was washed and allowed to stand for 20-30 minutes. Indomethacin (5 μM) was added thereto, and after incubation for 30 minutes, the specimen was contracted by adding LTD4 (30 nM). After the reaction-became stable, a test sample drug was accumulatively administered. Finally, AP (1 mM) was added to achieve the maximum relaxation reaction. The result was expressed by relaxation percent relative to the relaxation by AP which was rated 100%, and a concentration to achieve 50% relaxation (EC50, μM) was measured. As a control drug, AP was used.
# [2] = tested on: guinea-pig trachea; test: Bronchodilating effect in vitro, Method 1-2: relaxation of guinea-pig trachea strips (no LTD4 contraction); format: cell-based; settings: Cavia porcellus; Method 1-2; trachea conditioned with 1 μM isoproterenol, no LTD4; DMSO 0.2 v/v%; read-out: EC50 (concentration to achieve 50% relaxation relative to relaxation by 1 mM aminophylline)
# Description: as §1, §2
# The same measuring method as method 1-1 was employed. The specimen was allowed to stand for from 60 to 90 minutes and then relaxed by an addition of 1 μM of isopreterenol. The specimen was washed, and this operation was repeated at an interval of from 30 to 40 minutes until a constant relaxation reaction was reached. Then, a test sample drug was accumulately applied to relax the specimen. Finally, 1 mM of AP was added to achieve the maximum relaxation reaction. The result was expressed by relaxation percent relative to the relaxation by AP which was rated 100%, and a concentration to achieve 50% relaxation (EC50, μM) was obtained. The final concentration of DMSO in the bath was adjusted to be 0.2 v/v%. As a control drug, AP was used.
# [3] = tested on: platelet; test: Anti-platelet aggregation effect in rabbits (ADP-induced); format: cell-based, rabbit; settings: rabbit PRP, ADP 5 to 10 μM, 37° C., read-out: IC50 (concentration at which aggregation of control sample was 50% inhibited)
# Description: Anti-platelet aggregation effect in rabbits
# Blood was collected from the abdominal artery of Japanese white male rabbits (weight: 1.8 to 2.5 kg) into a syringe containing 1/10 volume 3.8% sodium citrate. The blood thus obtained was subjected to a centrifugation at 200×g for 7 minutes at room temperature to obtain platelet rich plasma (PRP). Furthermore, the residue was subjected to a centrifugation at 2000×g for 10 minutes to obtain platelet poor plasma (PPP). The measurement was effected by diluting PRP with PPP to 300,000/mm^3. PRP and PPP were placed in a cuvette, and the measurement range of transmittance was adjusted to 0% in the case of PRP and to 100% in the case of PPP. Thereafter, a test sample drug dissolved in 100% dimethylsulfoxide (DMSO) was added to PRP (the final concentration of DMSO: 0.25%). After incubation was effected at 37° C. at 900 rpm for 2 minutes, an aggregating agent was added to record an aggregation curve. The anti-platelet aggregation effect of the test sample drug was expressed by a concentration (IC50 : μM) at which the aggregation of control sample was 50% inhibited. The aggregating agent ADP was used at the minimum concentration (5 to 10 μM) which caused the maximum aggregation. The measurement of platelet aggregation was carried out by using NBS HEMA TRACER 601.
# [4] = tested on: anaphylactic bronchoconstriction mediated by endogeneously liberated SRS-A; test: Effect on anaphylactic bronchoconstriction mediated by endogeneously liberated SRS-A in passively sensitized guinea-pig; format: in vivo; settings: 30 mg/kg, orally 2 hours before EA challenge; for inhibition in vivo at 30 mg/kg: Cavia porcellus, po, 2 h, read-out: Inhibition of broncho-constriction
# Description: Effect on anaphylactic bronchoconstriction mediated by endogeneously liberated SRS-A in passively sensitized guinea-pig
# Male guinea-pigs (350-450 g) were passively sensitized with intravenous (i.v.) injection of 0.125 ml rabbit anti-EA (egg albumin) serum (Capple Laboratories) 1 to 2 days preceding the experiment. Antigen-induced anaphylactic bronchoconstrictions mediated by endogeneously liberated SRS-A were measured by modified method of Konzett and Rossler (Arch. Exp. Path. Pharmak., 195, 71, 1940). Sensitized quinea-pigs were anaesthetized with intraperitoneal injection of urethane (1.5 g/kg). The right jugular vein was cannulated for the administration of the all agents and trachea was cannulated to record total pulmonary resistance. Guinea-pigs were artificially ventilated by a small animal respirator (Shinano, Model SN-480-7) set at a stroke volume of 4.5 ml and a rate of 50 breaths per min. The change in pulmonary resistance was measured with a pressure transducer (Nihon Kohden, Model TP-602T) connected to a T-tube on the tracheal cannula. The percentage of the maximum bronchoconstriction obtained by clamping off the trachea. Following surgical preparation, the animals were pretreated with indomethacin (2 mg/kg, 10 min), pyrilamine (2 mg/kg, 6 min) and propranolol (0.1 mg/kg, 5 min) prior to the EA challenge (0.2 mg/kg). All test compounds were administered orally 2 hours before the EA challenge. Inhibition (%) of broncho-constriction was determined as follows: Inhibition (%)=(1.0-% maximum bronchoconstriction in test/% maximum bronchoconstriction in control)×100. The maximum bronchoconstriction was 62±6% (Mean±S.E.M; n=6) and the number of test animals was 5-6.
# [5] = Oryctolagus cuniculus, Platelet
Structure (SMILES),EC50 ([1]; Cavia porcellus),EC50 [2],other results
"Cn1c(=O)c2[nH]cnc2n(C)c1=O [Aminophylline, reference compound]",178000 nM,37000 nM,
COc1ccc(CNc2cn[nH]c(=O)c2Cl)cc1OCCN1CCN(Cc2ccccc2)CC1 [Compound 4],1700 nM,,"IC50 [3, 5]: 5200 nM"
COc1ccc(CNc2cn[nH]c(=O)c2Br)cc1OCCN1CCN(Cc2ccccc2)CC1 [Compound 5],420 nM,,"IC50 [3, 5]: 4100 nM"
COc1ccc(CNc2cn[nH]c(=O)c2Br)cc1OCCN1CCN(Cc2ccccc2)CC1 [Compound 6],,,IC50 [3]: 3900 nM
COc1ccc(CNc2cn[nH]c(=O)c2Br)cc1OCCN1CCN(Cc2ccc(F)cc2)CC1 [Compound 13],450 nM,,"IC50 [3, 5]: 2900 nM"
COc1ccc(CNc2cn[nH]c(=O)c2Br)cc1OCCN1CCN(Cc2ccc(F)cc2)CC1 [Compound 14],,,IC50 [3]: 3500 nM
COc1ccc(CNc2cn[nH]c(=O)c2Cl)cc1OCCN1CCN(Cc2ccc(F)cc2)CC1 [Compound 15],480 nM,,"IC50 [3, 5]: 4500 nM"
COc1ccc(CNc2cn[nH]c(=O)c2Cl)cc1OCCN1CCN(Cc2ccc(F)cc2)CC1 [Compound 16],,340 nM,IC50 [3]: 5200 nM
CCn1ncc(NCc2ccc(OC)c(OCCCN3CCN(Cc4ccc(F)cc4)CC3)c2)c(Cl)c1=O [Compound 27],4000 nM,,
COc1ccc(CNc2cn[nH]c(=O)c2Cl)cc1OCC(=O)NCc1cccnc1 [Compound 31],6900 nM,,
COc1ccc(CNc2cn[nH]c(=O)c2Br)cc1OCC(=O)N1CCN(Cc2cccnc2)CC1 [Compound 34],3800 nM,,
COc1ccc(CNc2cn[nH]c(=O)c2Cl)cc1OCC(=O)N1CCN(Cc2cccnc2)CC1 [Compound 35],6600 nM,,
COc1ccc(CNc2cn[nH]c(=O)c2Cl)cc1OCC(=O)N1CCN(Cc2ccccc2)CC1 [Compound 37],,,Inhibition of broncho-constriction [4]: 54%
COc1ccc(CNc2cn[nH]c(=O)c2Br)cc1OCC(=O)N1CCN(Cc2ccccc2)CC1 [Compound 38],,,"IC50 [3, 5]: 1200 nM"
COc1ccc(CNc2cn[nH]c(=O)c2Br)cc1OCCCC(=O)N1CCN(Cc2ccccc2)CC1 [Compound 48],950 nM,210 nM,"IC50 [3, 5]: 4000 nM"
COc1ccc(CNc2cn[nH]c(=O)c2Cl)cc1OCCCCCC(=O)N1CCN(Cc2ccccc2)CC1 [Compound 49],1100 nM,,
COc1ccc(CNc2cn[nH]c(=O)c2Cl)cc1OCC(=O)N1CCN(Cc2ccc(Cl)cc2)CC1 [Compound 51],6100 nM,97 nM,"IC50 [3, 5]: 1100 nM"

Structure (SMILES),EC50 ([1]; Cavia porcellus),EC50 [2],other results
COc1ccc(CNc2cn[nH]c(=O)c2Cl)cc1OCC(O)CN1CCN(Cc2ccc(F)cc2)CC1 (stereo not drawn) [Compound 53],3100 nM,,
COc1ccc(CNc2cn[nH]c(=O)c2Cl)cc1OCCCN1CCN(Cc2ccccc2)CC1 [Compound 54],,300 nM,EC50 [1]: 2400 nM
COc1ccc(CNc2cn[nH]c(=O)c2Cl)cc1OC(C)CN1CCN(Cc2ccc(F)cc2)CC1 (stereo not drawn) [Compound 55],7300 nM,,
COc1ccc(CNc2cn[nH]c(=O)c2Cl)cc1OCC(=O)N1CCN(Cc2ccc3ccccc3n2)CC1 [Compound 61],,310 nM,
COc1ccc(CNc2cn[nH]c(=O)c2Cl)cc1OCC(=O)N1CCC(Cc2ccccc2)CC1 [Compound 62],,50 nM,
CCOc1n[nH]c(=O)c(Cl)c1NCc1ccc(OC)c(OCCN2CCN(Cc3ccc(F)cc3)CC2)c1 [Compound 65],,360 nM,
CCOc1n[nH]c(=O)c(Cl)c1NCc1ccc(OC)c(OCC(=O)N2CCN(Cc3ccccc3)CC2)c1 [Compound 66],180 nM,67 nM,
CCOc1n[nH]c(=O)c(Cl)c1NCc1ccc(OC)c(OCC(C)(C)C(=O)N2CCN(Cc3ccc(F)cc3)CC2)c1 [Compound 69],,430 nM,
CCOc1n[nH]c(=O)c(Cl)c1NCc1ccc(OC)c(OCCCN2CCN(Cc3ccc4ccccc4n3)CC2)c1 [Compound 71],,250 nM,
CCOc1n[nH]c(=O)c(Cl)c1NCc1ccc(OC)c(OCC(=O)N2CCN(Cc3nc4ccccc4n3Cc3ccc(F)cc3)CC2)c1 [Compound 73],,490 nM,
CCOc1n[nH]c(=O)c(Cl)c1NCc1ccc(OC)c(OCC(=O)N2CCC(Cc3ccccc3)CC2)c1 [Compound 74],,46 nM,inhibition in vivo at 30 mg/kg [4]: 30%
CCOc1n[nH]c(=O)c(Cl)c1NCc1ccc(OC)c(OCCN2CCC(Cc3ccccc3)CC2)c1 [Compound 75],,400 nM,
COc1ccc(CNc2c(OC(C)C)n[nH]c(=O)c2Cl)cc1OCC(=O)N1CCN(Cc2ccc(F)cc2)CC1 [Compound 76],690 nM,48 nM,
COc1ccc(CNc2c(OC(C)C)n[nH]c(=O)c2Cl)cc1OCC(O)CN1CCN(Cc2ccc(NC=O)cc2)CC1 (stereo not drawn) [Compound 77],,57 nM,inhibition in vivo at 30 mg/kg [4]: 65%
"COc1ccc(CNc2c(OC(C)C)n[nH]c(=O)c2Cl)cc1OCC(=O)N1CCN(Cc2ccc(N)cc2)CC1 [Compound 78, 4-Chloro-5-[3-(4-(4-aminobenzyl)-piperazin-1-yl)-carbonylmethoxy-4-methoxybenzylamino]-6-isopropoxy-3(2H)-pyridazinone]",,14 nM,inhibition in vivo at 30 mg/kg [4]: 54%
COc1ccc(CNc2c(OC(C)C)n[nH]c(=O)c2Cl)cc1OCC(=O)N1CCN(Cc2ccc(NC=O)cc2)CC1 [Compound 79],,41 nM,
COc1ccc(CNc2c(OC(C)C)n[nH]c(=O)c2Cl)cc1OCC(=O)N1CCN(Cc2ccc(NC(C)=O)cc2)CC1 [Compound 80],,39 nM,inhibition in vivo at 30 mg/kg [4]: 30%
